In one series the test system is normal human fibroblasts. Nature of the series: AS-induced toxicity to normal human fibroblasts, crystal violet cell number. Type of series: cell-based. The settings on record: for effect on AS cytotoxicity to human fibroblasts: ascorbic acid 5 mM, POBN 10 mM, DMSO 0.2 M in incubation medium. Here is the method: Human fetal fibroblasts were cultured as described herein. Briefly, human fetal hearts of gestational age 16-24 weeks are aseptically obtained after elective termination of normal pregnancy by dilatation and evacuation. The aorta is then cannulated for continuous perfusion of the coronary arteries with calcium-free Tyrode's solution (117 mM NaCl, 5.7 mM KCl, 11 mM glucose, 4.4 mM NaHCO3, 1.5 mM KH2PO4, 1.7 mM MgCl2, HEPES 20 mM, pH 7.4) containing 1 U/ml of Na-heparin at 37° C., bubbled with 100% O2 as described for the Langendorff preparation. After 15 min of washing to clear the blood from the heart, fresh calcium-free Tyrode's solution containing 1.5 mg/ml collagenase A (type III) is recirculated for approximately 20 minutes. The heart dissociates spontaneously, allowing cells to slowly drip and fall on a Petri dish containing 0.25% trypsin, 1 mM EDTA in HBSS. Clumps of cells are dissociated and the resulting suspension poured over a cell strainer. Cells are centrifuged and the pellet resuspended in 20 ml of culture medium [DME supplemented with 10% fetal bovine serum, 50 U/ml PCN, 50 U/ml streptomycin, […] gentamicin, 1 mM non-essential amino acid (Gibco Laboratories), 0.1 mM essential medium vitamins (Gibco Laboratories), 2 mM glutamine, 0.1 mM Na pyruvate]. To obtain primary cardiac fibroblasts, the isolate will be plated in flasks (20 min at 37° C.). The fibroblasts will be passaged at 12×10^6 cells per 75 cm2 culture flask and grown in 5% CO2 at 37° C. After 3 passages in culture, the fibroblast stain using the fibroblast-specific antibody (monoclonal anti-human fibroblast surface protein, Clone 1B10).
The concentration of the hydroxylamine was determined by co-injection of 4-methylpicoline as described in Analytical Chemistry, Stoyanovsky, et al., supra. […] Normal human fibroblasts (800 cells per plate) were treated for 30 minutes at 37° C. with AS in 50 mM phosphate buffer (pH 6.3, open circles; pH 7.4, filled circles) containing 0.15 M NaCl and 0.2 mM CaC12. Thereafter, the fluid was removed, the cells were covered with minimal essential medium containing 10% fetal bovine serum (Sigma Chem. Co.,St. Louis, Mo.) and incubated at 37° C.; after 4 hours, the cell number was determined by the crystal violet method as known by those skilled in the art. Results are from four independent experiments. Each experimental point represents the mean of triplicate±SEM % (Mean value±standard error; n=3) of controls. […] The cells were treated as indicated in FIG. 5B except that in the incubation medium was included (1) ascorbic acid (5 mM) plus SOD (superoxide dismuthase)(300 U per ml) plus catalase (500 U per ml) filled circles, all purchased from Sigma Chem. Co.; (2) POBN (10 mM) open circles; or 3. DMSO ([…]) filled triangles.

The subject of series [1] is breast cancer cells (BRCA1, OMIM Number 113705). Nature of the series: AS-induced toxicity to breast cancer cells, crystal violet cell number. Type of series: cell-based, human.
The conditions of series [2]: cited from earlier work.

Take `[Na+].[Na+].[O-][N+]([O-])=NO` [AS, sodium trioxodinitrate]: the figures for the “toxicity to normal human fibroblasts” value with normal human fibroblasts (acidic conditions) and in the series with normal human fibroblasts (non-acidic conditions) were “toxic” and “not toxic”, respectively. For the same molecule, the cell toxicity result (in the series with normal human fibroblasts (pH 7.4); in series [1] (pH 7.4)) was “not observed” throughout. Further, in series [1] (pH 6.2, 30 minutes at 37° C. with AS, cell number after 4 hours), the “death of treated cells” value is reported as “approximately 70%”. Also, the stability result in series [2] (alkaline solutions) is “relatively stable”. Also, the pK1 in series [2] (aqueous solution) is 3.0. Besides, the pK2 in series [2] (aqueous solution) was 9.35. In addition, the rate of decomposition result in series [2] (pH interval of 3.5 to 8.5) is reported as “rapid, proton-independent”.

For the molecule `C[S+](C)[O-]` [DMSO, dimethyl sulfoxide, reference compound], in the series on normal human fibroblasts, the “effect on AS cytotoxicity to human fibroblasts” value (“effect on AS cytotoxicity” below) is on record as “protective effect”.

On to `CC(C)(C)[N+]([O-])=Cc1cc[n+]([O-])cc1` [POBN, alpha-(4-Pyridyl-1-oxide)-N-tert-butylnitrone, reference compound], for which, in the series with normal human fibroblasts, the “effect on AS cytotoxicity” value is “protective effect”.

For `O=C1O[C@H]([C@@H](O)CO)C(O)=C1O` [ascorbic acid, reference compound], the “effect on AS cytotoxicity” value in the series with normal human fibroblasts is listed as “protective effect”.

Values taken from US20030068386A1, “Method of treating cancerous disease” (priority 2001, published 2003).
